One data set concerns HepG2 cells. As to the kind of experiment: Effect on in vitro proliferation of HepG2 cells (CellTiter-Glo). The class given is cell-based. The settings on record: HepG2 cells, 72 hours, CellTiter-Glo; read-out: CC50.
The test system of data set [1] is HBV DNA replication in HepG2.2.15 cells. As to the kind of experiment: In vitro anti-HBV activity test (quantitative assay of intracellular HBV DNA), HepG2.2.15 cells, quantitative PCR. The class given is cell-based, hepatitis B virus (HBV). Conditions: HBV DNA by quantitative PCR.
Data set [2] in a line: Pharmacokinetics assay in rats after intragastrical administration (LC/MS/MS of plasma). The settings on record: SD rats, 2 mg/kg. The class given is in vivo.

Data on one compound can be found in patent US11247998B2, “Piperazine heteroaryl derivative, preparation method therefor and use of same in medicine” (priority 2017, dated 2022).

Some results are limits rather than exact numbers.

As for `C[C@H]1Cn2nnc(C(=O)N[C@H](C)C(F)(F)F)c2CN1C(=O)Nc1ccc(F)c(C#N)c1` [Example 45, (S)—N^5-(3-Cyano-4-fluorophenyl)-6-methyl-N^3-((R)-1,1,1-trifluoropropan-2-yl)-6,7-dihydro-[1,2,3]triazolo[1,5-α]pyrazine-3,5(4H)-dicarboxamide], in the data set on HepG2 cells, the CC50 was above 100 µM. Moreover, the “Emax (effect value of the compound to maximally inhibit HBV DNA replication)” value in data set [1] was 102%. The compound also had an EC50 in data set [1] (compound treatment Day 2 to Day 8) of 0.038 µM. In data set [2], the “Area under curve AUC” value turned out to be 17.162 ± 5.791 µg·h/mL, the “Bioavailability (%) F %” value came to 110%, the “Clearance CLz/F” value was 0.128 ± 0.0438 L/h/kg and the “Half-life T1/2” value stood at 19.2 ± 7.16 h. Besides, in data set [2], the “Plasma concentration Cmax” value is 0.715 ± 0.187 µg/mL and the “Residence time MRT” value turned out to be 27.4 ± 9.5 h.
